Values quoted from earlier work as cited in patent US6682747B1 (Boehringer Ingelheim Pharma KG, priority 1998, dated 2004).

Settings: buffered aqueous systems, pH 2-4

- solubility: less than 0.5 μg/ml
Compound: Cc1cnc(NC(=O)C2=C(O)c3ccccc3S(=O)(=O)N2C)s1 [meloxicam]
